Source: patent EP4722209A1 (Beijing Shenogen Pharma Group, priority 2023, dated 2024)

Key:
[1] = molecular target: T1, ERα (Homo sapiens, UniProt P03372); test: ER degradation activity in MCF-7 cells (Western blot, grayscale intensity); assay type: cell-based; conditions: 6 hours treatment, 1 nM to 100 nM, concentration required to degrade 50% of the target protein
T1 construct: host or cells: MCF-7
T1 sequence (P03372 1-595): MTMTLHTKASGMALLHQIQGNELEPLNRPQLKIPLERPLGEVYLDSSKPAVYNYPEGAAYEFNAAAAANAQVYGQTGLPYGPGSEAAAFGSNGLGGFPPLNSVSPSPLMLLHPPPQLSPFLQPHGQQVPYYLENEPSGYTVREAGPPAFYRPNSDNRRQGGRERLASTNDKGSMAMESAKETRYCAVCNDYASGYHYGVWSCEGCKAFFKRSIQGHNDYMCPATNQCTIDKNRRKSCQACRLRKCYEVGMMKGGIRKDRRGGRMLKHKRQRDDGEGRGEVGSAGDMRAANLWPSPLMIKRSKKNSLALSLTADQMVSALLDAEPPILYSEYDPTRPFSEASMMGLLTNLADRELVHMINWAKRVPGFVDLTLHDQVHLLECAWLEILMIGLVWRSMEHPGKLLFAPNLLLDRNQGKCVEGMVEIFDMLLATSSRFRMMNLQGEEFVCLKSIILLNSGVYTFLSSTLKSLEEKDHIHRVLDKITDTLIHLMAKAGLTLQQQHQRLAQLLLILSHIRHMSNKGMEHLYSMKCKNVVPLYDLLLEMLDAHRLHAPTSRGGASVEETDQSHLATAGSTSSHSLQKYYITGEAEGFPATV
In short: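 MCF-7 cells were treated 24 h after seeding with test compounds at 1 nM to 100 nM final (0.2% DMSO) for 6 h at 37 °C. ERα in lysates (30 µg protein) was detected by Western blot with ECL; degradation was quantified from band grayscale intensity and DC50 derived.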

[2] = test system: MCF-7 cells; test: Inhibition of MCF-7 cell proliferation (CellTiter-Glo cell viability); assay type: cell-based; conditions: Homo sapiens, MCF7, 144 h, 6 days treatment, 1 pM to 10 µM
Experimental: ERα-positive human breast cancer cells MCF-7 (ATCC, HTB-22) were cultured with EMEM medium (ATCC, catalog number 30-2003) containing 10% fetal bovine serum (Thermo Fisher, catalog number 10099141) and 10 µg/mL bovine insulin in 25 cm^2 or 75 cm^2 plastic tissue culture flasks in a 37 °C incubator with 5% CO2. The cells were passaged 2 to 3 times per week.
MCF-7 cells were seeded in 96-well plate at 3×10^3 cells/well with 90 µL culture medium per well, and cultured in a 37 °C incubator with 95% air and 5% CO2. After 24 hours, the test compounds were added: the compounds were serially diluted 10-fold in DMSO starting from 10 mM (dissolved in DMSO) to prepare gradient stock solutions. A complete culture medium containing 1% DMSO was prepared for further dilution, temporarily named as the "dilution buffer." Working solutions were prepared by diluting each stock solution with 99 times the volume of dilution buffer, that is, by adding 1 µL of the 10 mM stock solution to 99 µL of the dilution buffer and mixing thoroughly. Finally, 10 µL of the working solution was added to the cell-seeded culture plate. The final concentration of DMSO in the cell culture medium was 0.2%, and the final concentration of the test compounds ranged from 1 pM to 10 µM. The cells were then incubated at 37 °C for 3 days. The culture medium was removed and replaced with 90µL per well of fresh medium. According to the above compound dilution method, the test compounds were added again. On the 6th day, the CellTiter Glo luminescent cell viability assay kit (Promag, item number G7573) was added for cell viability measurement.
Cell viability was measured using the CellTiter-Glo assay kit, and the half-maximal growth inhibitory concentration (GI50) of the compounds was calculated using the Prism software.
The GI50 values (i.e., the concentration of the test compounds required to inhibit 50% of the cell proliferation) were calculated and shown in Table 2. A corresponds to a GI50 value below 10 nM, B corresponds to a GI50 value greater than 10 nM and less than 100 nM, and C corresponds to GI50 values greater than 100 nM. Table 2. The GI50 values of exemplary compounds in MCF-7 cells

| Compound | DC50 [1] | GI50 [2] |
| --- | --- | --- |
| CC1(C)CC(=C(c2ccc(N3CCC(CN4CCN(c5ccc6c(c5)CN(C5CCC(=O)NC5=O)C6=O)CC4)CC3)nc2)c2ccc3[nH]nc(F)c3c2)CC(C)(C)O1 (racemic) [Compound 34] | < 0.01 µM | < 0.01 µM |
| CC1(C)CC(=C(c2ccc(N3CCC4(CC3)CC(N3CCN(c5ccc6c(c5)CN(C5CCC(=O)NC5=O)C6=O)CC3)C4)nc2)c2ccc3[nH]nc(F)c3c2)CC(C)(C)O1 (racemic) [Compound 35] | < 0.01 µM | < 0.01 µM |
| CC1(C)CC(=C(c2ccc(N3CCN(C4CN(c5ccc6c(c5)C(=O)N(C5CCC(=O)NC5=O)C6=O)C4)CC3)cc2)c2ccc3[nH]nc(F)c3c2)CC(C)(C)O1 (stereo not shown) [Compound 2] | < 0.01 µM | 0.01 to 0.1 µM |
| CC1(C)CC(=C(c2ccc(N3CCC(CN4CCN(c5ccc6c(c5)C(=O)N(C5CCC(=O)NC5=O)C6=O)CC4)CC3)cc2)c2ccc3[nH]ncc3c2)CC(C)(C)O1 (stereo not shown) [Compound 5] | < 0.01 µM | < 0.01 µM |
| CC1(C)CC(=C(c2ccc(N3CCC(CN4CCN(c5ccc6c(c5)C(=O)N(C5CCC(=O)NC5=O)C6=O)CC4)CC3)cc2)c2ccc3[nH]nc(F)c3c2)CC(C)(C)O1 (stereo not shown) [Compound 6] | < 0.01 µM | < 0.01 µM |
| CC1(C)CC(=C(c2ccc(N3CCN(C4CCN(c5ccc6c(c5)C(=O)N(C5CCC(=O)NC5=O)C6=O)CC4)CC3)cc2)c2ccc3[nH]nc(F)c3c2)CC(C)(C)O1 (stereo not shown) [Compound 22] | < 0.01 µM | < 0.01 µM |
| CC1(C)CC(=C(c2ccc(N3CCC(N4CCN(c5ccc6c(c5)C(=O)N(C5CCC(=O)NC5=O)C6=O)CC4)CC3)cc2)c2ccc3[nH]nc(F)c3c2)CC(C)(C)O1 (stereo not shown) [Compound 31] | < 0.01 µM | < 0.01 µM |
| CC1(C)CC(=C(c2ccc(N3CCC(N4CCN(c5ccc6c(c5)CN(C5CCC(=O)NC5=O)C6=O)CC4)CC3)cc2)c2ccc3[nH]nc(F)c3c2)CC(C)(C)O1 (stereo not shown) [Compound 37] | 0.01 to 0.1 µM | < 0.01 µM |
| CC1(C)CC(=C(c2ccc(N3CCC(CNC4CCN(c5ccc6c(c5)CN(C5CCC(=O)NC5=O)C6=O)CC4)CC3)nc2)c2ccc3[nH]nc(F)c3c2)CC(C)(C)O1 (stereo not shown) [Compound 44] | < 0.01 µM | < 0.01 µM |
| CC1(C)CC(=C(c2ccc(N3CC4(CCN(C5CCN(c6ccc7c(c6)CN(C6CCC(=O)NC6=O)C7=O)CC5)CC4)C3)nc2)c2ccc3[nH]nc(F)c3c2)CC(C)(C)O1 (stereo not shown) [Compound 46] | < 0.01 µM | < 0.01 µM |
| CC1(C)CC(=C(c2ccc(N3CCC4(CC3)CN(C3CCN(c5ccc6c(c5)CN(C5CCC(=O)NC5=O)C6=O)CC3)C4)nc2)c2ccc3[nH]nc(F)c3c2)CC(C)(C)O1 (stereo not shown) [Compound 47] | < 0.01 µM | < 0.01 µM |
| CC1(C)CC(=C(c2ccc(N3CCC(F)(CNC4CCN(c5ccc6c(c5)CN(C5CCC(=O)NC5=O)C6=O)CC4)CC3)nc2)c2ccc3[nH]nc(F)c3c2)CC(C)(C)O1 (stereo not shown) [Compound 48] | < 0.01 µM | < 0.01 µM |
| CC1(C)CC(=C(c2ccc(N)nc2)c2ccc(N3CCC(CN4CCN(c5ccc6c(c5)CN(C5CCC(=O)NC5=O)C6=O)CC4)CC3)nc2)CC(C)(C)O1 (stereo not shown) [Compound 116] | > 0.1 µM |  |
| CC1(C)CC(=C(c2ccc(N3CCC(CN4CCN(c5ccc6c(c5)C(=O)N(C5CCC(=O)NC5=O)C6)CC4)CC3)nc2)c2ccc3[nH]nc(F)c3c2)CC(C)(C)O1 (stereo not shown) [Compound 118] | > 0.1 µM |  |
| CC1(C)CC(=C(c2ccc(N3CCC(CN4CCN(c5ccc(C(=O)N[C@H]6CCC(=O)NC6=O)c(F)c5)CC4)CC3)nc2)c2ccc3[nH]nc(F)c3c2)CC(C)(C)O1 [Compound 122] | < 0.01 µM |  |
| CC1(C)CC(=C(c2ccc(N3CCC4(CC3)CC(N3CCN(c5ccc(C(=O)N[C@H]6CCC(=O)NC6=O)c(F)c5)CC3)C4)nc2)c2ccc3[nH]nc(F)c3c2)CC(C)(C)O1 [Compound 123] | 0.01 to 0.1 µM |  |
| Cn1nc(N2CCC(=O)NC2=O)c2cc(F)c(N3CCN(CC4CCN(c5ccc(C(=C6CC(C)(C)OC(C)(C)C6)c6ccc7[nH]nc(F)c7c6)cn5)CC4)CC3)cc21 [Compound 124] | 0.01 to 0.1 µM |  |

| Compound | DC50 [1] | GI50 [2] |
| --- | --- | --- |
| Cn1nc(N2CCC(=O)NC2=O)c2cc(F)c(N3CCN(C4CC5(CCN(c6ccc(C(=C7CC(C)(C)OC(C)(C)C7)c7ccc8[nH]nc(F)c8c7)cn6)CC5)C4)CC3)cc21 [Compound 125] | < 0.01 µM |  |
| CC1(C)CC(=C(c2ccc(N3CCC(CN4CCN(c5ccc(C(=O)N[C@H]6CCC(=O)NC6=O)cc5)CC4)CC3)nc2)c2ccc3[nH]nc(F)c3c2)CC(C)(C)O1 [Compound 126] | < 0.01 µM |  |
| CC1(C)CC(=C(c2ccc(N3CCC4(CC3)CC(N3CCN(c5ccc(C(=O)N[C@H]6CCC(=O)NC6=O)cc5)CC3)C4)nc2)c2ccc3[nH]nc(F)c3c2)CC(C)(C)O1 [Compound 127] | < 0.01 µM |  |
| CC1(C)CC(=C(c2ccc(N3CCC(CN4CCN(c5ccc(C(=O)N[C@H]6CCC(=O)NC6=O)nc5)CC4)CC3)nc2)c2ccc3[nH]nc(F)c3c2)CC(C)(C)O1 [Compound 128] | 0.01 to 0.1 µM |  |
| CC1(C)CC(=C(c2ccc(N3CCC4(CC3)CC(N3CCN(c5ccc(C(=O)N[C@H]6CCC(=O)NC6=O)nc5)CC3)C4)nc2)c2ccc3[nH]nc(F)c3c2)CC(C)(C)O1 [Compound 129] | 0.01 to 0.1 µM |  |
| CC1(C)CC(=C(c2ccc(N3CCC(CN4CCN(c5ccc6c(c5)C(=O)N([C@@H]5CCC(=O)NC5=O)C6=O)CC4)CC3)cc2)c2ccc3[nH]ncc3c2)CC(C)(C)O1 [Compound 130] | < 0.01 µM |  |
| CC1(C)CC(=C(c2ccc(N3CCC(CN4CCN(c5ccc6c(c5)C(=O)N([C@H]5CCC(=O)NC5=O)C6=O)CC4)CC3)cc2)c2ccc3[nH]ncc3c2)CC(C)(C)O1 [Compound 131] | < 0.01 µM |  |
| CC1(C)CC(=C(c2ccc(N3CCC(N4CCN(c5ccc6c(c5)CN([C@@H]5CCC(=O)NC5=O)C6=O)CC4)CC3)cc2)c2ccc3[nH]nc(F)c3c2)CC(C)(C)O1 [Compound 134] | 0.01 to 0.1 µM |  |
| CC1(C)CC(=C(c2ccc(N3CCC(N4CCN(c5ccc6c(c5)CN([C@H]5CCC(=O)NC5=O)C6=O)CC4)CC3)cc2)c2ccc3[nH]nc(F)c3c2)CC(C)(C)O1 [Compound 135] | 0.01 to 0.1 µM |  |
| CC1(C)CC(=C(c2ccc(N3CCC(CN4CCN(c5ccc6c(c5)CN([C@@H]5CCC(=O)NC5=O)C6=O)CC4)CC3)nc2)c2ccc3[nH]ncc3c2)CC(C)(C)O1 [Compound 136] | < 0.01 µM |  |
| CC1(C)CC(=C(c2ccc(N3CCC(CN4CCN(c5ccc6c(c5)CN([C@H]5CCC(=O)NC5=O)C6=O)CC4)CC3)nc2)c2ccc3[nH]ncc3c2)CC(C)(C)O1 [Compound 137] | < 0.01 µM |  |
| CC1(C)CC(=C(c2ccc(N3CC4(CCN(C5CCN(c6ccc7c(c6)CN([C@@H]6CCC(=O)NC6=O)C7=O)CC5)CC4)C3)nc2)c2ccc3[nH]nc(F)c3c2)CC(C)(C)O1 [Compound 138] | < 0.01 µM |  |
| CC1(C)CC(=C(c2ccc(N3CC4(CCN(C5CCN(c6ccc7c(c6)CN([C@H]6CCC(=O)NC6=O)C7=O)CC5)CC4)C3)nc2)c2ccc3[nH]nc(F)c3c2)CC(C)(C)O1 [Compound 139] | 0.01 to 0.1 µM |  |
| CC1(C)CC(=C(c2ccc(N3CCC4(CC3)CN(C3CCN(c5ccc6c(c5)CN([C@@H]5CCC(=O)NC5=O)C6=O)CC3)C4)nc2)c2ccc3[nH]nc(F)c3c2)CC(C)(C)O1 [Compound 140] | < 0.01 µM |  |
| CC1(C)CC(=C(c2ccc(N3CCC4(CC3)CN(C3CCN(c5ccc6c(c5)CN([C@H]5CCC(=O)NC5=O)C6=O)CC3)C4)nc2)c2ccc3[nH]nc(F)c3c2)CC(C)(C)O1 [Compound 141] | < 0.01 µM |  |
| CC1(C)CC(=C(c2ccc(N3CCC(F)(CNC4CCN(c5ccc6c(c5)CN([C@@H]5CCC(=O)NC5=O)C6=O)CC4)CC3)nc2)c2ccc3[nH]nc(F)c3c2)CC(C)(C)O1 [Compound 142] | < 0.01 µM |  |
| CC1(C)CC(=C(c2ccc(N3CCC(F)(CNC4CCN(c5ccc6c(c5)CN([C@H]5CCC(=O)NC5=O)C6=O)CC4)CC3)nc2)c2ccc3[nH]nc(F)c3c2)CC(C)(C)O1 [Compound 143] | 0.01 to 0.1 µM |  |
